# Source: publication PMC5564600 (Oncotarget, 2017)
# Assays:
# PI3Kγ = PI3Kγ (Homo sapiens, UniProt P48736); assay: PI3K (human) HTRF assay, PI3Kγ; assay type: biochemical; settings: ATP 10 μM, mean ± SEM
# panel of 442 kinases = panel of 442 kinases (Homo sapiens, UniProt P42336); assay: biochemical; assay type: binding; settings: kinase PIK3CA; 1 µM; read-out: % of control at 1 µM
structure (smiles),measurement,setting,value
COc1ncc(-c2ccc3nccc(-c4ccnnc4)c3c2)cc1NS(=O)(=O)c1ccc(F)cc1F [Omipalisib],IC50,PI3Kγ,1.2 ± 0.2 nM
same,remaining activity at 1 µM,panel of 442 kinases,0%
